This is an account of results in patent publication US20260234165A1, “MACROCYCLIC COMPOUNDS, PREPARATION METHOD THEREFOR, AND USE THEREOF” (GENFLEET THERAPEUTICS (SHANGHAI) INC., priority 2004, published 2026).

Type in all cases: cell-based, human
Experiment [1] deals with p-ERK in AsPC-1 cells (KRAS G12D mutation). Nature of the experiment: Cell p-ERK assay (HTRF) in AsPC-1 cells. In outline: (§1)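 IC50 values derive from four-parameter fitting of p-ERK (T202/Y204) HTRF inhibition, normalized to DMSO and blank controls. The lysates came from cells exposed for 3 h to serial 3.16-fold compound dilutions at 0.1% DMSO, after overnight plating at 10000 AsPC-1 or 20000 NCI-H441 cells per well.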
Background: Time-resolved FRET reads energy transfer from a long-lived donor to a nearby acceptor.

Experiment [2] deals with AsPC-1 cells (KRAS G12D mutation). Nature of the experiment: 3D cell proliferation assay (CellTiter Glo-3D), AsPC-1. As to conditions: medium with 2% FBS, read-out: AsPC-1 AP IC50. In outline:
(§2)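 Luminescence read-out (CellTiter-Glo 3D) after 5-day compound exposure at 37 °C, 5% CO2. Cells: NCI-H441 and AsPC-1, 800/well, RPMI-1640 + 2% FBS, 0.1% DMSO final. IC50 by four-parameter fit of % inhibition against log concentration.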
(In ATP-based viability assays light output follows the ATP content of the culture.)

Experiment [3] concerns p-ERK in NCI-H441 cells (KRAS G12V mutation). Nature of the experiment: Cell p-ERK assay (HTRF) in NCI-H441 cells. In outline:
as §1

The subject of a further experiment is NCI-H441 cells. Briefly: 3D cell proliferation assay (CellTiter Glo-3D), NCI-H441. As to conditions: medium with 2% FBS, read-out: H441 AP IC50. The procedure, abridged:
as §2

The mark [4] stands for this setting: Homo sapiens, ASPC1, 3D cell proliferation (CellTiter Glo-3D).
Setting [5] is: AsPC-1 cells, 3 h compound incubation, HTRF p-ERK T202/Y204, read-out: AsPC-1 p-ERK IC50.
Where [6] appears, read: 3D cell proliferation (CellTiter Glo-3D).
[7] abbreviates: NCI-H441 cells, 3 h compound incubation, HTRF p-ERK T202/Y204, read-out: H441 p-ERK IC50.
Where [8] appears, read: Homo sapiens, ASPC1, 3 h, AsPC-1 cells, 3 h compound incubation, HTRF p-ERK T202/Y204, read-out: AsPC-1 p-ERK IC50.
The mark [9] stands for this setting: Homo sapiens, NCI-H441, 3 h, NCI-H441 cells, 3 h compound incubation, HTRF p-ERK T202/Y204, read-out: H441 p-ERK IC50.
[10] abbreviates: Homo sapiens, NCI-H441, 3D cell proliferation (CellTiter Glo-3D).

Structures are written as SMILES. Structures can show the parent of a compound that is named as a salt. Where two headings read alike, the source gives them in different places.

As for `COCCn1c(-c2cc(C#CCN(C)C[Si](C)(C)C)cnc2[C@H](C)OC)c2c3cc(ccc31)-c1csc(n1)C[C@H](NC(=O)[C@H]1[C@@H]3COC[C@@H]31)C(=O)N1CCC[C@H](N1)C(=O)OCC(C)(C)C2` (atropisomer, axis not shown; (Ra)) [Compound Z1091, (1R,5S,6r)-N-((6^3S,4S,Z)-1^1-(2-methoxyethyl)-1^2-(Ra)-(2-((S)-1-methoxyethyl)-5-(3-(methyl((trimethylsilyl)methyl)amino)prop-1-yn-1-yl)pyridin-3-yl)-10,10-dimethyl-5,7-dioxo-6^1,6^2,6^3,6^4,6^5,6^6-hexahydro-1^1H-8-oxa-2(4,2)-thiazola-1(5,3)-indola-6(1,3)-pyridazinacycloundecaphane-4-yl)-3-oxabicyclo[3.1.0]hexane-6-carboxamide], the half-inhibitory concentration (IC50) in experiment [1] (Homo sapiens, ASPC1, 3 h, read-out: AsPC-1 p-ERK IC50(nM)) amounted to 2.34 nM; in experiment [2] (setting [4]) it was 1.67 nM; in experiment [3] (Homo sapiens, NCI-H441, 3 h, read-out: H441 p-ERK IC50(nM)), 1.92 nM; with NCI-H441 cells (Homo sapiens, 3D cell proliferation (CellTiter Glo-3D)), 2.01 nM.

In the case of `CO[C@@H](C)c1ncc(OCCN2CCS(=O)(=O)CC2)cc1-c1c2c3cc(ccc3n1C(C)C)-c1csc(n1)C[C@H](NC(=O)[C@H]1[C@H](C)[C@@H]1C)C(=O)N1CCC[C@H](N1)C(=O)OCC(C)(C)C2` (atropisomer, axis not shown; (Ra)) [Compound Z678, (1r,2R,3S)—N-((6^3S,4S,Z)—(Ra)-1^2-(5-(2-(1,1-dioxidothiomorpholino)ethoxy)-2-((S)-1-methoxyethyl)pyridin-3-yl)-1^1-isopropyl-10,10-dimethyl-5,7-dioxo-6^1,6^2,6^3,6^4,6^5,6^6-hexahydro-1^1H-8-oxa-2(4,2)-thiazola-1(5,3)-indola-6(1,3)-pyridazinacycloundecaphane-4-yl)-2,3-dimethylcyclopropane-1-carboxamide], the concentration for half-maximal inhibition (IC50) in experiment [1] (setting [5]) came out at 0.06 nM; in experiment [2] (setting [6]), 0.17 nM; in experiment [3] (setting [7]) it was 0.17 nM; in the experiment with NCI-H441 cells (setting [6]), 0.06 nM.

`CCn1c(-c2cc(N3CCN(C)CC3)cnc2[C@H](C)OC)c2c3cc(ccc31)-c1csc(n1)C[C@H](NC(=O)C(C)(C)F)C(=O)N1CCC[C@H](N1)C(=O)OCC(C)(C)C2` (atropisomer, axis not shown; (Ra)) [Compound Z66, N-((6^3S,4S,Z)-1^1-ethyl-(Ra)-1^2-(2-((S)-1-methoxyethyl)-5-(4-(methyl-d3)piperazin-1-yl)pyridin-3-yl)-10,10-dimethyl-5,7-dioxa-6^1,6^2,6^3,6^4,6^5,6^6-hexahydro-1^1H-8-oxa-2(4,2)-thiazola-1(5,3)-indola-6(1,3)-pyridazinacycloundecaphane-4-yl)-2-fluoro-2-methylpropanamide]: the IC50 amounted to 2.72 nM in experiment [1] (setting [5]), 20.9 nM in experiment [2] (setting [6]), 4.26 nM in experiment [3] (setting [7]) and 5.69 nM in the experiment with NCI-H441 cells (setting [6]).

As to `CCn1c(-c2cc(C#C[C@H]3CCCN3C)cnc2[C@H](C)OC)c2c3cc(ccc31)-c1csc(n1)C[C@H](NC(=O)[C@H]1[C@H](C)[C@@H]1C)C(=O)N1CCC[C@H](N1)C(=O)OCC(C)(C)C2` (atropisomer, axis not shown; (Ra)) [Compound Z599, (1r,2S,3R)—N-((6^3S,4S,Z)—(Ra)-1^2-(5-(((R)-1-methylpyrrolidin-2-yl)ethynyl)-2-((S)-1-methoxyethyl)pyridin-3-yl)-1^1-ethyl-10,10-dimethyl-5,7-dioxo-6^1,6^2,6^3,6^4,6^5,6^6-hexahydro-1^1H-8-oxa-2(4,2)-thiazola-1(5,3)-indola-6(1,3)-pyridazinacycloundecaphane-4-yl)-2,3-dimethylcyclopropane-1-carboxamide], the IC50 in experiment [1] (setting [8]) was found to be 1.05 nM; in experiment [2] (setting [4]) it was 2.15 nM; in experiment [3] (setting [9]), 0.7 nM; in the experiment on NCI-H441 cells (setting [10]) it was 1.17 nM.

As to `CCn1c(-c2cc(C#CCN3CC(O)C3)cnc2[C@H](C)OC)c2c3cc(ccc31)-c1csc(n1)C[C@H](NC(=O)[C@H]1[C@H](C)[C@@H]1C)C(=O)N1CCC[C@H](N1)C(=O)OCC(C)(C)C2` [Compound Z1065, (2R,3S)—N-((6^3S,4S,Z)-1^1-ethyl-1^2-(5-(3-(3-hydroxyazetidin-1-yl)prop-1-yn-1-yl)-((S)-1-methoxyethyl)pyridin-3-yl)-10,10-dimethyl-5,7-dioxo-6^1,6^2,6^3,6^4,6^5,6^6-hexahydro-1^1H-8-oxo-2(4,2)-thiazola-1(5,3)-indola-6(1,3)-pyridazinacycloundecaphane-4-yl)-2,3-dimethylcyclopropane-1-carboxamide formate], the half-maximal inhibitory concentration (IC50) in experiment [1] (setting [5]) was 0.42 nM; in experiment [2] (setting [6]) it was 0.43 nM; in experiment [3] (setting [7]), 0.31 nM; in the experiment with NCI-H441 cells (setting [6]) it was 0.4 nM.

On to `CCn1c(-c2cc(CCN3CCS(=O)(=O)CC3)cnc2[C@H](C)OC)c2c3cc(ccc31)-c1csc(n1)C[C@H](NC(=O)[C@H]1[C@H](C)[C@@H]1C)C(=O)N1CCC[C@H](N1)C(=O)OCC(C)(C)C2` [Compound Z485A, (1r,2R,3S)—N-((6^3S,4S,Z)-1^2-(5-(2-(1,1-dioxidothiomorpholino)ethyl)-2-((S)-1-methoxyethyl)pyridin-3-yl)-1-ethyl-10,10-dimethyl-5,7-dioxo-6^1,6^2,6^3,6^4,6^5,6^6-hexahydro-1^1H-8-oxa-2(4,2)-thiazola-1(5,3)-indola-6(1,3)-pyridazinacycloundecaphane-4-yl)-2,3-dimethylcyclopropane-1-carboxamide], for which the IC50 was determined as 1.45 nM in experiment [1] (setting [5]), 2.4 nM in experiment [2] (setting [6]), 1.14 nM in experiment [3] (setting [7]) and 1 nM with NCI-H441 cells (setting [6]).

In the case of `CCn1c(-c2cc(N(C)CC3COCCN3C)cnc2[C@H](C)OC)c2c3cc(ccc31)-c1csc(n1)C[C@H](NC(=O)[C@H]1[C@H](C)[C@@H]1C)C(=O)N1CCC[C@H](N1)C(=O)OCC(C)(C)C2` (stereo partly drawn) [Compound Z76, (1r,2R,3S)—N-((6^3S,4S,Z)-1^1-ethyl-1^2-(2-((S)-1-methoxyethyl)-5-(methyl((4-methylmorpholin-3-yl)methyl)amino)pyridin-3-yl)-10,10-dimethyl-5,7-dioxo-6^1,6^2,6^3,6^4,6^5,6^6-hexahydro-11H-8-oxa-2(4,2)-thiazola-1(5,3)-indola-6(1,3)-pyridazinacycloundecaphane-4-yl)-2,3-dimethylcyclopropane-1-carboxamide], the IC50 in experiment [1] (setting [8]) was 19.2 nM; in experiment [2] (setting [4]), 30.3 nM; in experiment [3] (setting [9]), 19 nM; in the experiment on NCI-H441 cells (setting [10]), 29.9 nM.

Take `CCn1c(-c2cc(OCCN3CC[S+]([O-])CC3)cnc2[C@H](C)OC)c2c3cc(ccc31)-c1csc(n1)C[C@H](NC(=O)[C@H]1[C@H](C)[C@@H]1C)C(=O)N1CCC[C@H](N1)C(=O)OCC(C)(C)C2` (atropisomer, axis not shown; (Ra)) [Compound Z600]: the IC50 in experiment [1] (setting [8]) came out at 0.51 nM; in experiment [2] (setting [4]), 0.66 nM; in experiment [3] (setting [7]), 0.51 nM; with NCI-H441 cells (setting [6]), 0.36 nM.

As to `CCn1c(-c2cc(C#CCN3CCC3)cnc2[C@H](C)OC)c2c3cc(ccc31)-c1csc(n1)C[C@H](NC(=O)[C@H]1[C@H](C)[C@@H]1C)C(=O)N1CCC[C@H](N1)C(=O)OCC(C)(C)C2` (atropisomer, axis not shown; (Sa)) [Compound Z555, (1r,2R,3S)—N-((6^3S,4S,Z)—(Sa)-1^2-(5-(3-(azetidin-1-yl)prop-1-yn-1-yl)-2-((S)-1-methoxyethyl)pyridin-3-yl)-1^1-ethyl-10,10-dimethyl-5,7-dioxo-6^1,6^2,6^3,6^4,6^5,6^6-hexahydro-1^1H-8-oxa-2(4,2)-thiazola-1(5,3)-indola-6(1,3)-pyridazinacycloundecaphane-4-yl)-2,3-dimethylcyclopropane-1-carboxamide], the half-maximal inhibitory concentration (IC50) amounted to 13.4 nM in experiment [1] (setting [5]), 30.4 nM in experiment [2] (setting [6]), 11.2 nM in experiment [3] (setting [7]) and 18.4 nM with NCI-H441 cells (setting [6]).

Regarding `CCn1c(-c2cc(OCC(C)(C)N3CCS(=O)(=O)CC3)cnc2[C@H](C)OC)c2c3cc(ccc31)-c1csc(n1)C[C@H](NC(=O)[C@H]1[C@H](C)[C@@H]1C)C(=O)N1CCC[C@H](N1)C(=O)OCC(C)(C)C2` [Compound Z667A], the IC50 in experiment [1] (setting [5]) is 2.6 nM; in experiment [2] (setting [6]), 2.97 nM; in experiment [3] (setting [7]), 1.6 nM; in the experiment with NCI-H441 cells (setting [6]) it was 1.31 nM.

For `CCn1c(-c2cc(C#CCN3CCC(N=S(C)(C)=O)CC3)cnc2[C@H](C)OC)c2c3cc(ccc31)-c1csc(n1)C[C@H](NC(=O)[C@H]1[C@H](C)[C@@H]1C)C(=O)N1CCC[C@H](N1)C(=O)OCC(C)(C)C2` [Compound Z1045], the half-maximal inhibitory concentration (IC50) in experiment [1] (setting [8]) is 0.36 nM; in experiment [2] (setting [4]), 0.21 nM; in experiment [3] (setting [9]), 0.19 nM; with NCI-H441 cells (setting [10]), 0.17 nM.

One may read the IC50 as the midpoint of a concentration-inhibition curve.
